# Measured values as given in publication PMC10266688 (PLOS ONE, 2023).
# What was measured:
# [1] = Microsomal stability, mouse liver microsomes; assay type: in vitro ADME; conditions: for % Drug Remaining NADPH Neg, Mouse Liver Microsomes / % Drug Remaining NADPH Pos, Mouse Liver Microsomes: 10 μM
# Description: (§1) An incubation mixture with, and without NADPH-generating system, as well as a neat solution prepared without microsomes and NADPH-generating system was used. […] All reactions were initiated with the addition of Up284. Incubations were performed in glass tubes maintained at 37°C in a shaker bath. At 0, 30, and 60 minutes, 10 μL samples were withdrawn from the reaction mixture, and 0.5 mL of acetonitrile containing internal standard was added to each. Samples were vortex-mixed and subjected to centrifugation for 5 min at 1430 x g. A 10 μL aliquot of the supernatant was injected onto the LC-MS/MS instrument for qualitative analysis using a temperature-controlled autosampling device operating at 5°C.
# [2] = Plasma stability, mouse EDTA plasma; assay type: in vitro ADME; conditions: for % Drug Remaining, Plasma (Mouse EDTA): 10 μM, 37°C
# [3] = tested on: TC1-OVA cells; assay: Antigen presentation (H-2Kb/[…]) by TC1-OVA cells, flow cytometry; assay type: cell-based, mouse; conditions: 0.25 μM, 12 h
# Description: TC1 cells stably expressing Ovalbumin (TC1-OVA) were plated (125,000 cells/well) in a 6 well plate in 2 mL RPMI complete medium.
# C) TC1-OVA cells were plated (125,000 cells/well) in a 6 well plate in 2 mL/well in complete medium.
# [4] = tested on: ES2-luc human ovarian tumor; assay: ES2-luc xenograft model, nude mice; assay type: in vivo, mouse; conditions: 10 mg/kg IP every 3 days
# Description: Female Nude mice were inoculated IP with 1x10^6 ES2-luc in 100 μL PBS. At day 3, mice were imaged for basal level luminescence activity with a Xenogen IVIS 200 after IP injection with luciferin (0.3 mg in 100 μL water). Mice were randomized into groups and treated IP with compounds or vehicle (25% (w/v) β-Hydroxypropylcyclodextrin in water), and imaged again on days indicated.
# Briefly mice were injected IP with ES2-luc cells, as ovarian cancer primarily spreads through the peritoneum, and it is the origin of primary peritoneal cancer. After four days, these mice were injected IP with luciferin and bioluminescence imaged by IVIS imager as a surrogate of tumor burden. […] Bioluminescent imaging was performed by IVIS 12 and 21 days later.
# (§2) A-C) Female nude mice were inoculated IP with ES2-luc cells, a human ovarian cancer line expressing luciferase. […] The IP tumor tissue and electroporated normal muscle tissue, being spatially distinct, were identified with separate regions of interest (ROI) after simultaneous imaging with IVIS.
# [5] = tested on: CHOP10 mRNA; assay: Q-PCR of CHOP10 mRNA; conditions: 1 μM, 4 h
# [6] = mouse, in vivo, iv, 20 mg/kg
# Description: The mice were divided into three groups consisting of three female CD1 mice each. […] Terminal blood sampling for hematological and serum biochemical analysis was performed on Day 7 of the study, 24 h after the last dosing. […] Terminal bleeding and euthanasia were performed on Day 7, 24 h after the third dosing. Blood collection was carried out after 6 h fasting. Animals were injected IP with 2,2,2-tribromoethanol (200 mg/kg) and the blood was collected from orbital sinuses into dry microtainers without anticoagulant. For the serum collection, the tubes with collected blood were held at RT for 15–60 min after blood drawing to form a clot, and then were centrifuged at 9000 rpm for 20 min at 4°C. The collected serum was frozen within 60–80 min after blood drawing and was stored at -20°C for further clinical chemistry analysis. For the hematological study, 25 μL of fresh blood was quickly mixed with an equal volume of 0.36% solution of K2EDTA in saline. Assessment of the hematological parameters was performed using the BIO TE hematology analyzer MCL-3124 and consumable reagents (Cormay) within 2 h of the blood draw. For clinical chemistry analyses, ASAT, ALAT, ALP, LDH, GGT, CK, Creatinine, Urea and TP were determined in the serum using commercial kits according to the manufacturer’s instructions.
# [7] = tested on: ES2 cells; assay: Seahorse assay (OCR, ECAR)
# [8] = Microsomal stability, human liver microsomes; assay type: in vitro ADME; conditions: for % Drug Remaining NADPH Neg, Human Liver Microsomes / % Drug Remaining NADPH Pos, Human Liver Microsomes: 10 μM
# Description: as §1
# [9] = tested on: ID8-luc murine ovarian tumor; assay: ID8-Defb29/VegfA-luc syngeneic model, C57BL6 mice; assay type: in vivo, mouse
# Description: Female C57BL6 mice were inoculated IP with 3x10^5 ID8-Defb29/VegfA-luc cells in 100 μL PBS. At day 3, mice were imaged for basal level luminescence activity with a Xenogen IVIS 200 after IP injection with luciferin (0.3 mg in 100 μL water). Mice were randomized into groups and treated IP with compounds or vehicle (25% (w/v) β-Hydroxypropylcyclodextrin in water), and imaged again on days indicated.
# as §2
# Female C57BL6 mice (4–6 weeks) were challenged IP with ID8-luc tumor.
# [10] = tested on: PEA2, PACS and SKOV3 cells; assay: Checkerboard combination cytotoxicity (MTT, Synergy finder); assay type: cell-based; conditions: 72 h
# Description: Results are reported as mean ± standard deviation (s.d.). Statistical significance of differences was assessed by two-tailed Student’s t using Prism (V.5 Graphpad, San Diego, CA) with the level of significance set at p≤0.05. Survival was summarized using Kaplan–Meier methods and compared using log-rank tests. Combination indices (CI) were calculated using Synergy finder.
# Cell viability was measured using MTT assay and data was processed using the Synergy Finder web application. B) Same as in A, PACS cell line derived from spontaneous mouse ovarian tumor [32], was used. (TIF) Click here for additional data file.
# Cell viability was measured using MTT assay and data was processed using the Synergy Finder web application. (TIF) Click here for additional data file.
# [11] = tested on: ES2 cells; assay: Reactive oxygen species, Amplex Red/HRP; conditions: 12 h
# [12] = Plasma stability, human EDTA plasma; assay type: in vitro ADME; conditions: for % Drug Remaining, Plasma (Human EDTA): 10 μM, 37°C
# [13] = Neat solution stability; assay type: physicochemical; conditions: 10 μM, 37°C
# Description: as §1
# [14] = tested on: HeLa cells; assay: MTT cytotoxicity assay, HeLa cells, 72 h; assay type: cell-based; conditions: Homo sapiens, 72 h treatment
structure (smiles),measurement,setting,value
N#Cc1ccc(/C=C2/C(=O)/C(=C/c3ccc(C#N)cc3)C23CCNCC3)cc1 [Up284],"additional degradation in the presence of NADPH, mouse liver microsomes",[1],~ 10%
same,degradation in mouse liver microsomes without NADPH,[1],~ 50%
same,"% Drug Remaining NADPH Neg, Mouse Liver Microsomes",[1]; 0 min,100%
same,"% Drug Remaining NADPH Pos, Mouse Liver Microsomes",[1]; 0 min,100%
same,"% Drug Remaining NADPH Neg, Mouse Liver Microsomes",[1]; 30 min,60%
same,"% Drug Remaining NADPH Pos, Mouse Liver Microsomes",[1]; 30 min,45%
same,"% Drug Remaining NADPH Neg, Mouse Liver Microsomes",[1]; 60 min,51%
same,"% Drug Remaining NADPH Pos, Mouse Liver Microsomes",[1]; 60 min,38%
same,"% Drug Remaining, Plasma (Mouse EDTA)",[2]; 0 min,100%
same,"% Drug Remaining, Plasma (Mouse EDTA)",[2]; 30 min,84%
same,"% Drug Remaining, Plasma (Mouse EDTA)",[2]; 60 min,94%
same,degradation in murine plasma,[2]; after incubating for 1 hour,< 10%
same,MHC class I antigen presentation (SIINFEKL on H-2Kb),[3],enhanced MHC class I antigen presentation
same,ES2-luc xenograft tumor burden (bioluminescence) vs vehicle,"[4]; days 12 and 21, p = 0.0002",significantly reduced
same,overall survival vs vehicle,[4]; p = 0.005,increased overall survival
same,CHOP10 mRNA levels,[5],rapid upregulation
same,other blood parameters vs vehicle,[6],did not significantly change
same,proton leakage,"[7]; ES2, 0.5 μM",did not impact
same,"oxygen consumption rate (OCR), basal and FCCP-stimulated, and ATP production","[7]; ES2, 0.5 μM, 12 h",significant decrease in OCR
same,extracellular acidification rate (ECAR),"[7]; ES2, after 24 h treatment",trend for reduction
same,"additional degradation in the presence of NADPH, human liver microsomes",[8],~ 10%
same,degradation in human liver microsomes without NADPH,[8],~ 50%
same,"% Drug Remaining NADPH Neg, Human Liver Microsomes",[8]; 0 min,100%
same,"% Drug Remaining NADPH Pos, Human Liver Microsomes",[8]; 0 min,100%
same,"% Drug Remaining NADPH Neg, Human Liver Microsomes",[8]; 30 min,57%
same,"% Drug Remaining NADPH Pos, Human Liver Microsomes",[8]; 30 min,43%
same,"% Drug Remaining NADPH Neg, Human Liver Microsomes",[8]; 60 min,52%
same,"% Drug Remaining NADPH Pos, Human Liver Microsomes",[8]; 60 min,43%
same,survival vs vehicle,"[9]; C57BL6, 20 mg/kg IP every third day for 4 weeks, p = 0.0004",significantly enhanced survival
same,ID8-luc tumor burden (bioluminescence) vs vehicle,"[9]; C57BL6, 20 mg/kg IP every third day, day 15, p = 0.0001",significantly lower tumor burden
same,cytotoxicity of Up284 and doxorubicin combination,[10]; SKOV3 cells,synergy
same,cytotoxicity of checkerboard combinations of Up284 and cisplatin,[10]; several cell lines including PEA2 and PACS,clear evidence of synergy
same,reactive oxygen species,[11],elevated levels of reactive oxygen species
same,"% Drug Remaining, Plasma (Human EDTA)",[12]; 0 min,100%
same,"% Drug Remaining, Plasma (Human EDTA)",[12]; 30 min,100%
same,"% Drug Remaining, Plasma (Human EDTA)",[12]; 60 min,90%
same,degradation in human plasma,[12]; after incubating for 1 hour,< 10%
same,"% Drug Remaining, Neat Solution",[13]; 0 min,100%
same,"% Drug Remaining, Neat Solution",[13]; 30 min,86%
same,"% Drug Remaining, Neat Solution",[13]; 60 min,78%
same,IC50,[14],40 nM
